Holding throughout (assay): In-house protein microarrays (with or without 5 mM DTT), protein named per line
Common to all, as to format: binding

For assay [1], the target named is T1, SH2 and PTB domains (Homo sapiens, UniProt O00459).
T1 construct: thioredoxin; made in house; host or cells: BL21(DE3)pLysS E. coli
The settings on record: protein PIK3R2-NC; PM assay replicate # 39307; array fabrication # 39286. In outline: (§1)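 Recombinant domains (~40 µM) spotted in duplicate on aldehyde slides, quenched 1 h at room temperature in HEPES/KCl/Tween-20 buffer pH 7.8 with 5 mM DTT and 1% BSA, then probed with rhodamine-labeled peptide. Thioredoxin-subtracted mean fluorescence fitted for KD.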

Assay [2] has as its target T2, SH2 and PTB domains (Homo sapiens, UniProt O60880).
T2 construct: thioredoxin; made in house; host or cells: BL21(DE3)pLysS E. coli
T2 sequence (O60880 1-128): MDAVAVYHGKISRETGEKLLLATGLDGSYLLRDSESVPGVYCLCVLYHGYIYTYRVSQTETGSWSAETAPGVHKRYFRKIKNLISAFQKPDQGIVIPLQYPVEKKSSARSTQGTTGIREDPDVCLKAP
The note with it: protein SH2D1A; PM assay replicate # 39307; array fabrication # 39286. In outline: as §1

Assay [3] addresses T3, SH2 and PTB domains (Homo sapiens, UniProt P07947).
T3 construct: thioredoxin; made in house; host or cells: BL21(DE3)pLysS E. coli
The note with it: protein YES1. The procedure, abridged:
as §1

Assay [4] concerns the target T4, SH2 and PTB domains (Homo sapiens, UniProt P12931).
T4 construct: thioredoxin; made in house; host or cells: BL21(DE3)pLysS E. coli
The settings on record: protein SRC; PM assay replicate # 39307; array fabrication # 39286. The procedure, abridged: as §1

Assay [5] deals with T5, SH2 and PTB domains (Homo sapiens, UniProt P16885).
T5 construct: thioredoxin; made in house; host or cells: BL21(DE3)pLysS E. coli
T5 sequence (P16885 1-1265): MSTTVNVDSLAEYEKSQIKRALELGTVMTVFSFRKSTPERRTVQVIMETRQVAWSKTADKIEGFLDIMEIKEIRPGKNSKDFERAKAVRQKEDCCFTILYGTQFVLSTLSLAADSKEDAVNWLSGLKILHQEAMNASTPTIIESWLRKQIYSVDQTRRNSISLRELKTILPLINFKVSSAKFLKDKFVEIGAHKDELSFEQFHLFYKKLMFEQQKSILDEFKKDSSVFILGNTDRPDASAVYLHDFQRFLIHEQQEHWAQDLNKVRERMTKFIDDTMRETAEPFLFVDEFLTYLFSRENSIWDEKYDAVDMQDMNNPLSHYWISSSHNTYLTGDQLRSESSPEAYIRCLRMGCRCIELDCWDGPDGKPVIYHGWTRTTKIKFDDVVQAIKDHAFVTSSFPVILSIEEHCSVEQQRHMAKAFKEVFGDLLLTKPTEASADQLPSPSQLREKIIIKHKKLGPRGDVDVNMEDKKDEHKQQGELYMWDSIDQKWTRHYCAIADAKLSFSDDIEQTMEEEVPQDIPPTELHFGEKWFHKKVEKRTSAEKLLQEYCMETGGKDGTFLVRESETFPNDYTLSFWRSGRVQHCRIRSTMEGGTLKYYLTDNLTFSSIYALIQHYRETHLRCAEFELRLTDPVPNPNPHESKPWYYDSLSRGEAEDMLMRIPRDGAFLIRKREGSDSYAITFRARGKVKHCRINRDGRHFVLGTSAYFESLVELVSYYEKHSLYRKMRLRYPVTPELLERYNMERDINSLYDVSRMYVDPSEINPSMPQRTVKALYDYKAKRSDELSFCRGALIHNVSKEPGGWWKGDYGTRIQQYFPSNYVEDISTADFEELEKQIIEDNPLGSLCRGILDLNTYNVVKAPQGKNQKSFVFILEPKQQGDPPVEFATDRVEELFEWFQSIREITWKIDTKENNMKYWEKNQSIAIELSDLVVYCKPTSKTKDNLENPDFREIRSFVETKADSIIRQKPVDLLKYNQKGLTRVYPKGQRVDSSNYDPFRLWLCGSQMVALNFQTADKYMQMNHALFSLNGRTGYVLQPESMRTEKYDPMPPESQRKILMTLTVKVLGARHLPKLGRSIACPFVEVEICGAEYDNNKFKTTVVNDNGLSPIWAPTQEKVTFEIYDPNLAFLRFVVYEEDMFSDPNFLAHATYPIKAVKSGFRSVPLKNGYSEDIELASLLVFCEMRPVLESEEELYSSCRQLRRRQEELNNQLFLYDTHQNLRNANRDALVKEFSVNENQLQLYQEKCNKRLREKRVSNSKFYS
The settings on record: protein PLCG2-NC. The procedure, abridged: as §1

The target of assay [6] is T6, SH2 and PTB domains (Homo sapiens, UniProt P51451).
T6 construct: thioredoxin; made in house; host or cells: BL21(DE3)pLysS E. coli
The settings on record: protein BLK. In outline: as §1

Assay [7] has as its target T7, SH2 and PTB domains (Homo sapiens, UniProt Q92569).
T7 construct: thioredoxin; made in house; host or cells: BL21(DE3)pLysS E. coli
The settings on record: protein PIK3R3-NC; PM assay replicate # 39307; array fabrication # 39286. In outline:
as §1

In assay [8] the target is T8, SH2 and PTB domains (Homo sapiens, UniProt Q9BRG2).
T8 construct: thioredoxin; made in house; host or cells: BL21(DE3)pLysS E. coli
The note with it: protein SH2D3A; PM assay replicate # 39307; array fabrication # 39286. In outline:
as §1

[9] abbreviates: PM assay replicate # 39307, array fabrication # 39286.
[10] abbreviates: PM assay replicate # 39352, array fabrication # 39336.

Consider one compound from article PMC3433420 (PLoS ONE, 2012).

Residues, ends and D or L forms follow the SMILES beside them.

T6 sequence (P51451 whole entry, the tested form may be a part): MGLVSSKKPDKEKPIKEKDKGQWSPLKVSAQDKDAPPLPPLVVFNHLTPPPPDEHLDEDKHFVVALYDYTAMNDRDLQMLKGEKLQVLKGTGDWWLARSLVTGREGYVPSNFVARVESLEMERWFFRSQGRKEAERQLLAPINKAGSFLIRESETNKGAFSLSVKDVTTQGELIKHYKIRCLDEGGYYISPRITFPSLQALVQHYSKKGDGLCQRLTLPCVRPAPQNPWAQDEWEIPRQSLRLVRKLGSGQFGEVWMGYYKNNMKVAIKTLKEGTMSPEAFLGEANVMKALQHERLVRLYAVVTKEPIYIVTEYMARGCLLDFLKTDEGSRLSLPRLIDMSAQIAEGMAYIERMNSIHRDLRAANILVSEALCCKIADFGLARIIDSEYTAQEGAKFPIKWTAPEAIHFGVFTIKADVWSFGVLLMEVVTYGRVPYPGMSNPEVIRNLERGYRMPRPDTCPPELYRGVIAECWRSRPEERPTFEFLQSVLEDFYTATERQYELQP
T3 sequence (P07947 whole entry, the tested form may be a part): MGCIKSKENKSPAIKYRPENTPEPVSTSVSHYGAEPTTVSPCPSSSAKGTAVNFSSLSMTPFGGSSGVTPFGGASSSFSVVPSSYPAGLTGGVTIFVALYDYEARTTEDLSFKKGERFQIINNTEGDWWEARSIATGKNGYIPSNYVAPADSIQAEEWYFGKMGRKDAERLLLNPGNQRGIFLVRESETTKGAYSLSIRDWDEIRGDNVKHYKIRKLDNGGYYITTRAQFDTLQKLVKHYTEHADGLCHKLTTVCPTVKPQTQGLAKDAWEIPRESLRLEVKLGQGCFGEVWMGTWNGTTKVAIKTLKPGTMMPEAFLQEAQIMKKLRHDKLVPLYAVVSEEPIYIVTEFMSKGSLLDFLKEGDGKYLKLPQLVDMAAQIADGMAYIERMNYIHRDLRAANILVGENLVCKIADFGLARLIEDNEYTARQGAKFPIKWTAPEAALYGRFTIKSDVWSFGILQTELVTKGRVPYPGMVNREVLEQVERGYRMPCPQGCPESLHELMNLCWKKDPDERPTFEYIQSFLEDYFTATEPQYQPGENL
T4 sequence (P12931 whole entry, the tested form may be a part): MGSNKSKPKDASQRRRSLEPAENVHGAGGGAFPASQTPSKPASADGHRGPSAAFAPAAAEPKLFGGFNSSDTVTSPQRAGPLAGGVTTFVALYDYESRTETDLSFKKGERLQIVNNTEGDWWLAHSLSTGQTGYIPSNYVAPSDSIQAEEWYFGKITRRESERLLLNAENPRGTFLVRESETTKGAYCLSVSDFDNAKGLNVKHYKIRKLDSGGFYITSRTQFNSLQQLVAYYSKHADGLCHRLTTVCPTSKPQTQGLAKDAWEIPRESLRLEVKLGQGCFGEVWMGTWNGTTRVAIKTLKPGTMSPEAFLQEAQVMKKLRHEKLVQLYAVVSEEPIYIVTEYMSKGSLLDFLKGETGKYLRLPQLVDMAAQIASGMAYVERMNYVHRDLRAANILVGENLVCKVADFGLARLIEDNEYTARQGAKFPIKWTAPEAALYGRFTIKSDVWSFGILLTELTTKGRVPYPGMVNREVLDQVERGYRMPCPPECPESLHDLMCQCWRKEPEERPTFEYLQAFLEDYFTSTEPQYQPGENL
T1 sequence (O00459 whole entry, the tested form may be a part): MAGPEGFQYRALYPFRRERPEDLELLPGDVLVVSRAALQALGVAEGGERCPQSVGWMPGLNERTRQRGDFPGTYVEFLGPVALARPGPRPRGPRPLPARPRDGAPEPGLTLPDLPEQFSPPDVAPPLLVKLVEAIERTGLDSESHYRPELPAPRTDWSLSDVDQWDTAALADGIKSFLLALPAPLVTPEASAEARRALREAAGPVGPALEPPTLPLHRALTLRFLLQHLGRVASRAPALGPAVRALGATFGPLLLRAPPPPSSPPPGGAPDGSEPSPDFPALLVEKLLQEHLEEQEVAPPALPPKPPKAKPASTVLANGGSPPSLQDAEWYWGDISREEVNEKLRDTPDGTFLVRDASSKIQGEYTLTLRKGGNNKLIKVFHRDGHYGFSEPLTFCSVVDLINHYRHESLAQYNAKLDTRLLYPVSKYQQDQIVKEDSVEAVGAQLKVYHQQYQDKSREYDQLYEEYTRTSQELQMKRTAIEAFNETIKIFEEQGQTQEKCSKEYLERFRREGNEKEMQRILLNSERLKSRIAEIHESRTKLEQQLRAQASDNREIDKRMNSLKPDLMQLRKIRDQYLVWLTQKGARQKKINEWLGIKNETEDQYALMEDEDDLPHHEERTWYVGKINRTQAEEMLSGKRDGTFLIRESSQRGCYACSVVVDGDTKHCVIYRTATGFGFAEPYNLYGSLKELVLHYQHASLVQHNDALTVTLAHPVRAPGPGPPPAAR
T8 sequence (Q9BRG2 whole entry, the tested form may be a part): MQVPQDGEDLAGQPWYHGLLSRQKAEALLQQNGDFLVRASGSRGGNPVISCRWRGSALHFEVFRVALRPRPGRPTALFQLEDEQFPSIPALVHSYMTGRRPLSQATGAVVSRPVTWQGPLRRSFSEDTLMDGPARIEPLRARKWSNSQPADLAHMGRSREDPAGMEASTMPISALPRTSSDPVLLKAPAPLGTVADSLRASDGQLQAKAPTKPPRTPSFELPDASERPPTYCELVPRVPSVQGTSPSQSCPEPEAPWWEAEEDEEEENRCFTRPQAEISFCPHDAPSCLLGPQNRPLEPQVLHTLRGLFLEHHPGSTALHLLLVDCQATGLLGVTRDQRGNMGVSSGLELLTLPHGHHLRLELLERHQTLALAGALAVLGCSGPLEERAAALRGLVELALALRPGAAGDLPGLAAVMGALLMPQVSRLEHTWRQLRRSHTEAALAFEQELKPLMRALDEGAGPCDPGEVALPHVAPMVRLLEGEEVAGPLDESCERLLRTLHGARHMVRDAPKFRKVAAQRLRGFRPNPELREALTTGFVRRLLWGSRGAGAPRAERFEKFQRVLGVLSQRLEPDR

As a reminder, the Kd is a measure of binding affinity in units of concentration. Higher therefore signals weaker binding. Take `CC[C@H](C)[C@H](NC(=O)[C@H](CC(N)=O)NC(=O)[C@H](CC(N)=O)NC(=O)[C@H](CCCCN)NC(=O)[C@H](CC(C)C)NC(=O)[C@H](Cc1ccc(OP(=O)(O)O)cc1)NC(=O)[C@H](CCC(=O)O)NC(=O)[C@H](C)NC(=O)[C@H](CCCCN)NC(=O)CNC(=O)[C@H](CC(C)C)NC(=O)[C@@H](NC(=O)[C@H](CC(N)=O)NC(=O)[C@H](C)NC(=O)[C@@H](N)Cc1ccccc1)[C@@H](C)O)C(=O)N[C@@H](CC(C)C)C(=O)N[C@@H](CO)C(=O)N[C@@H](CC(=O)O)C(=O)O` [ErbB4 pY1221 (18-mer)] (HELM PEPTIDE1{F.A.N.T.L.G.K.A.E.[O=C([C@H](Cc1ccc(OP(=O)(O)O)cc1)N[*:1])[*:2]].L.K.N.N.I.L.S.D}$$$$V2.0): the “Kd” value on SH2 and PTB domains [1] amounted to 1.34 µM; on SH2 and PTB domains [2], 0.77 µM; at SH2 and PTB domains [3] (setting [9]), 0.82 µM; at SH2 and PTB domains [3] (setting [10]), 1.32 µM; on SH2 and PTB domains [4], 0.44 µM; on SH2 and PTB domains [5] (setting [9]), 1.38 µM. Besides, the “Kd” value is 1.25 µM at SH2 and PTB domains [5] (setting [10]); 0.58 µM on SH2 and PTB domains [6] (setting [9]); 1.15 µM at SH2 and PTB domains [6] (PM assay replicate # 39351, array fabrication # 39336); 1.16 µM at SH2 and PTB domains [6] (setting [10]); 0.54 µM at SH2 and PTB domains [7]; 0.61 µM at SH2 and PTB domains [8].
